This is an account of results in US20230072683A1, “PYRIDO-PYRIMIDIN DERIVATIVES AND PHARMACEUTICAL COMPOSITION, FOR USE IN PREVENTING OR TREATING PI3 KINASE RELATED DISEASES, COMPRISING SAME AS ACTIVE INGREDIENT” (BORYUNG PHARMACEUTICAL CO., LTD, priority 2019, published 2023).

The target in one test is DNA-PK(h) (Homo sapiens, UniProt P78527). The experiment in a line: Evaluation of inhibitory activity against DNA-PK (HTRF kinase assay, GST-cMyc-p53 substrate). It counts as biochemical. Conditions: for inhibition at 0.01 µM: compound concentration 0.01 μM, read-out: EXP_VALUE(% Inhibition) DNA-PK(h) 0.01 μM; for inhibition at 0.1 µM: compound concentration 0.1 μM, read-out: EXP_VALUE(% Inhibition) DNA-PK(h) 0.1 μM. The essentials: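 Human DNA-PK with 50 μM GST-cMyc-p53 substrate; reaction started with Mg/ATP, run 30 min at room temperature, stopped with EDTA. Phospho-Ser15 p53 detected by HTRF (Eu anti-phospho-Ser15, d2 anti-GST), signal = 10000×(Em 665/Em 620).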
(TR-FRET usually uses a lanthanide donor and a delayed reading to cut background.)

The target in test [1] is PI3K-δ (PI3K(p1108/p857) (h)) (Homo sapiens, UniProt O00329). The test is described as follows: Evaluation of inhibitory activity against PI3K-δ (HTRF kinase assay). It counts as biochemical. Conditions: for inhibition at 0.01 µM: compound concentration 0.01 μM, read-out: EXP_VALUE(% Inhibition) PI3K-δ 0.01 μM; for inhibition at 0.1 µM: compound concentration 0.1 μM, read-out: EXP_VALUE(% Inhibition) PI3K-δ 0.1 μM. The essentials: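 HTRF read-out (665/620 nm ratio ×10000) used Eu-labelled anti-GST, GST-tagged GRP1 PH domain and streptavidin-allophycocyanin after EDTA/PIP3 stop.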
PI3K-δ (PI3K(p1108/p857) (h)), sequence (O00329 whole entry, the tested form may be a part): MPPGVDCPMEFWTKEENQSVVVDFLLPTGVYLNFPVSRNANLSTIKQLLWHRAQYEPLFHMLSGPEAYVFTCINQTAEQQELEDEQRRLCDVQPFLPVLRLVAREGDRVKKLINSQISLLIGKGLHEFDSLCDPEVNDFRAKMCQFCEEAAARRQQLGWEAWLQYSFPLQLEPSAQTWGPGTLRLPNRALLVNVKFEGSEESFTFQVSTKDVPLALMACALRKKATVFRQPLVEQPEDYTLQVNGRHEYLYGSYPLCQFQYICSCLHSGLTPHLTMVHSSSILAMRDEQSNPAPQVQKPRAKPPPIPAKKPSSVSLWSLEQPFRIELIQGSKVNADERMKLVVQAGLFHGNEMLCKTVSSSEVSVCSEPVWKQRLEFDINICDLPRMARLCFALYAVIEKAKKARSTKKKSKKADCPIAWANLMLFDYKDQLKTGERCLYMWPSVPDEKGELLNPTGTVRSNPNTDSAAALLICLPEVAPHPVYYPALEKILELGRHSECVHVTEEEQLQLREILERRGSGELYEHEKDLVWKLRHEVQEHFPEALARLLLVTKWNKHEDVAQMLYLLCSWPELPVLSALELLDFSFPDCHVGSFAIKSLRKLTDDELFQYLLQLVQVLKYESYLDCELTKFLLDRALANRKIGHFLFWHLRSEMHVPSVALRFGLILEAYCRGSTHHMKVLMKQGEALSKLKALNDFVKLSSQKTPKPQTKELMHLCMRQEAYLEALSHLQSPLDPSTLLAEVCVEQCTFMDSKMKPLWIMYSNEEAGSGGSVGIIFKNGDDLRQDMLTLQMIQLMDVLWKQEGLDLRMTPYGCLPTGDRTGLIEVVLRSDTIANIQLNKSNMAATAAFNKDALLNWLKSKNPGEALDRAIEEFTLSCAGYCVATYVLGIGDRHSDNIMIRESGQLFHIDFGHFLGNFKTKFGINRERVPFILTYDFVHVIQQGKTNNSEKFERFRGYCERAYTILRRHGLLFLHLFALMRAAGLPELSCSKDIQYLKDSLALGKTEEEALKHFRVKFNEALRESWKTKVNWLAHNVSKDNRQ
PI3K-δ (PI3K(p1108/p857) (h)), sequence (P27986 whole entry partner, the tested form may be a part): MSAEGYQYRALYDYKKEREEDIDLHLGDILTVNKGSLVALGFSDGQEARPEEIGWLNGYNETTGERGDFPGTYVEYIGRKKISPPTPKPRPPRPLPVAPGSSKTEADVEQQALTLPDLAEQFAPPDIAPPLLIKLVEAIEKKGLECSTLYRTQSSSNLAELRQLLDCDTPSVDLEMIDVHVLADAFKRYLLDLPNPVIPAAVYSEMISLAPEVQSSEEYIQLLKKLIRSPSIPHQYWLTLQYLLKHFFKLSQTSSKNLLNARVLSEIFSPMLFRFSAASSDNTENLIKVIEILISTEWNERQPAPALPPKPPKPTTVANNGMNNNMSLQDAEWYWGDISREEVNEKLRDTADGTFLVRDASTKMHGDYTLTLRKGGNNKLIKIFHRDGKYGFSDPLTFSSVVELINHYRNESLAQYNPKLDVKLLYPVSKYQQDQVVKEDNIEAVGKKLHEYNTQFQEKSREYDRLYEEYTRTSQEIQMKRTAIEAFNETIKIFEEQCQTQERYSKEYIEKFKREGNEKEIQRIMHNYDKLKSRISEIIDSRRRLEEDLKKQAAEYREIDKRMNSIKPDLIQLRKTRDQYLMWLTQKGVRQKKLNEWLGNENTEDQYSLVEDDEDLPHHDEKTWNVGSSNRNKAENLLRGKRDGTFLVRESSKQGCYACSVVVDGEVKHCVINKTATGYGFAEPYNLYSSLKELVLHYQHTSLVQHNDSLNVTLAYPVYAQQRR

With `CCc1cccc2c(Cl)c([C@H](C)Nc3ncnc4[nH]ccc(=O)c34)n(-c3ccccc3)c(=O)c12` [Example 354, (S)-4-((1-(4-chloro-8-ethyl-1-oxo-2-phenyl-1,2-dihydroisoquinolin-3-yl)ethyl)amino)pyrido[2,3-d]pyrimidin-5(8H)-one], on DNA-PK(h), the inhibition at 0.01 µM was 63% and the inhibition at 0.1 µM was 94%. Also, in test [1], the inhibition at 0.01 µM was found to be 95% and the inhibition at 0.1 µM came out at 106%.
As for `C[C@H](Nc1ncnc2[nH]ccc(=O)c12)c1c(Cl)c2cccc(CO)c2c(=O)n1-c1ccccc1` [Example 355, (S)-4-((1-(4-chloro-8-(hydroxymethyl)-1-oxo-2-phenyl-1,2-dihydroisoquinolin-3-yl)ethyl)amino)pyrido[2,3-d]pyrimidin-5(8H)-one], the values for the inhibition at 0.01 µM (at DNA-PK(h); in test [1]) were 47% and 78%, respectively.
`C[C@H](Nc1ncnc2[nH]ccc(=O)c12)c1c(Cl)c2cccc(C3NCCS3)c2c(=O)n1-c1ccccc1` (stereo partly drawn) [Example 356, 4-(((1S)-1-(4-chloro-1-oxo-2-phenyl-8-(thiazolidin-2-yl)-1,2-dihydroisoquinolin-3-yl)ethyl)amino)pyrido[2,3-d]pyrimidin-5(8H)-one]: the inhibition at 0.01 µM on DNA-PK(h) came to 34%; in test [1], 62%.
As for `C[C@H](Nc1ncnc2[nH]ccc(=O)c12)c1c(Cl)c2cccc(C(O)C(C)(C)C)c2c(=O)n1-c1ccccc1` (stereo partly drawn) [Example 357, 4-(((1S)-1-(4-chloro-8-(1-hydroxy-2,2-dimethylpropyl)-1-oxo-2-phenyl-1,2-dihydroisoquinolin-3-yl)ethyl)amino)pyrido[2,3-d]pyrimidin-5(8H)-one], the inhibition at 0.01 µM on DNA-PK(h) amounted to 15%; in test [1], 11%.
`C[C@H](Nc1ncnc2[nH]ccc(=O)c12)c1c(Cl)c2cccc(C3OCC(C)(C)CO3)c2c(=O)n1-c1ccccc1` [Example 358, (S)-4-((1-(4-chloro-8-(5,5-dimethyl-1,3-dioxan-2-yl)-1-oxo-2-phenyl-1,2-dihydroisoquinolin-3-yl)ethyl)amino)pyrido[2,3-d]pyrimidin-5(8H)-one]: the results for the inhibition at 0.01 µM (on DNA-PK(h); in test [1]) were -1% and 37%, respectively.
Consider `C[C@H](Nc1ncnc2[nH]ccc(=O)c12)c1c(Cl)c2cccc(COCC(C)(C)CO)c2c(=O)n1-c1ccccc1` [Example 359, (S)-4-((1-(4-chloro-8-((3-hydroxy-2,2-dimethylpropoxy)methyl)-1-oxo-2-phenyl-1,2-dihydroisoquinolin-3-yl)ethyl)amino)pyrido[2,3-d]pyrimidin-5(8H)-one], for which the inhibition at 0.01 µM was determined as 8% on DNA-PK(h) and 46% in test [1].
With `C[C@H](Nc1ncnc2[nH]ccc(=O)c12)c1c(Cl)c2cccc(C(C)(C)O)c2c(=O)n1-c1ccccc1` [Example 360, (S)-4-((1-(4-chloro-8-(2-hydroxypropan-2-yl)-1-oxo-2-phenyl-1,2-dihydroisoquinolin-3-yl)ethyl)amino)pyrido[2,3-d]pyrimidin-5(8H)-one], the inhibition at 0.01 µM was -4% at DNA-PK(h) and 6% in test [1].
In the same order, the values of `C[C@H](Nc1ncnc2[nH]ccc(=O)c12)c1c(Cl)c2cccc([C@@H](C)O)c2c(=O)n1-c1ccccc1` [Example 361, 4-(((S)-1-(4-chloro-8-((R)-1-hydroxyethyl)-1-oxo-2-phenyl-1,2-dihydroisoquinolin-3-yl)ethyl)amino)pyrido[2,3-d]pyrimidin-5(8H)-one] are 48% and 56%.
Take `C[C@H](Nc1ncnc2[nH]ccc(=O)c12)c1c(Cl)c2cccc(OCc3ccccc3)c2c(=O)n1-c1ccccc1` [Example 362, (S)-4-((1-(8-(benzyloxy)-4-chloro-1-oxo-2-phenyl-1,2-dihydroisoquinolin-3-yl)ethyl)amino)pyrido[2,3-d]pyrimidin-5(8H)-one]: at DNA-PK(h), the inhibition at 0.01 µM stood at 29% and the inhibition at 0.1 µM amounted to 67%. Further, in test [1], the inhibition at 0.01 µM is 21% and the inhibition at 0.1 µM came to 64%.

The inhibition is the change of the read-out against control, counted positive when it falls.
